The results in this text go back to patent US8952024B2, “Herbicidal pyrimidone derivatives” (E I du Pont de Nemours and Company, priority 2009, dated 2015).

The first assay relates to soybean (Glycine max). The assay is described as follows: Test B pre-/postemergence plant response. In kind it is in vivo. Conditions: Postemergence, 250 g ai/ha; scale 0 to 100 (0 no effect, 100 complete control). The method, boiled down:
(§1)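 Plants treated either at seeding (loam/sand soil) or postemergence at 2 to 18 cm height, using a surfactant-containing non-phytotoxic solvent formulation. Evaluation was visual after 13 to 15 days, 0 to 100 scale relative to controls.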
Regarding `CCCCn1c(-c2ccccc2)ncc(C(=O)C2=C(O)CCCC2=O)c1=O` [Compound 86], the “Plant response rating, Soybean” value was 98.

Another assay has as its system velvetleaf (Abutilon theophrasti). The assay is described as follows: Test B pre-/postemergence plant response. As to conditions: 31 g ai/ha, postemergence; scale 0 to 100, 0 is no effect, 100 is complete control. In kind it is in vivo. The method, boiled down:
as §1
Turning to `CCCCn1c(-c2ccccc2)ncc(C(=O)C2=C(O)CCCC2=O)c1=O` [Compound 86], the “Plant response rating, Velvetleaf” value turned out to be 98.

The same assay, now with this note: 62 g ai/ha, postemergence; 0 is no effect, 100 is complete control; 13 to 15 days.
As to `CCCCn1c(-c2ccccc2)ncc(C(=O)C2=C(O)CCCC2=O)c1=O` [Compound 86], the “Velvetleaf plant response rating (0 to 100 scale)” value is on record as 100.

The same assay, now with this note: Postemergence, 250 g ai/ha; scale 0 to 100 (0 no effect, 100 complete control).
Take `CCCCn1c(-c2ccccc2)ncc(C(=O)C2=C(O)CCCC2=O)c1=O` [Compound 86]: the “Plant response rating, Velvetleaf” value is given as 100.

In the next assay the test system is wheat (Triticum aestivum). The assay can be described thus: Test B pre-/postemergence plant response. The format is in vivo. As to conditions: 31 g ai/ha, postemergence; scale 0 to 100, 0 is no effect, 100 is complete control. The method, boiled down: as §1
As for `CCCCn1c(-c2ccccc2)ncc(C(=O)C2=C(O)CCCC2=O)c1=O` [Compound 86], the “Plant response rating, Wheat” value turned out to be 5.

Staying with this assay, now noted: 62 g ai/ha, postemergence; 0 is no effect, 100 is complete control; 13 to 15 days.
Consider `CCCCn1c(-c2ccccc2)ncc(C(=O)C2=C(O)CCCC2=O)c1=O` [Compound 86], for which the “Wheat plant response rating (0 to 100 scale)” value came to 35.

Staying with this assay, now noted: Postemergence, 250 g ai/ha; scale 0 to 100 (0 no effect, 100 complete control).
Take `CCCCn1c(-c2ccccc2)ncc(C(=O)C2=C(O)CCCC2=O)c1=O` [Compound 86]: the “Plant response rating, Wheat” value was found to be 45.

Another assay has as its system wild oat (Avena fatua). The assay is described as follows: Test B pre-/postemergence plant response. The format is in vivo. As to conditions: 31 g ai/ha, postemergence; scale 0 to 100, 0 is no effect, 100 is complete control. An outline of the steps:
as §1
Turning to `CCCCn1c(-c2ccccc2)ncc(C(=O)C2=C(O)CCCC2=O)c1=O` [Compound 86], the “Plant response rating, Oat, Wild” value is recorded as 20.

The assay is the same for the next values; noted with them: 62 g ai/ha, postemergence; 0 is no effect, 100 is complete control; 13 to 15 days.
Take `CCCCn1c(-c2ccccc2)ncc(C(=O)C2=C(O)CCCC2=O)c1=O` [Compound 86]: the “Oat, Wild plant response rating (0 to 100 scale)” value is recorded as 50.

The same assay, now with this note: Postemergence, 250 g ai/ha; scale 0 to 100 (0 no effect, 100 complete control).
In the case of `CCCCn1c(-c2ccccc2)ncc(C(=O)C2=C(O)CCCC2=O)c1=O` [Compound 86], the “Plant response rating, Oat, Wild” value was 80.

The subject of the next assay is canarygrass (Phalaris minor). The assay is described as follows: Test B postemergence plant response. The format is in vivo. Conditions: 31 g ai/ha, postemergence; scale 0 to 100, 0 is no effect, 100 is complete control. The method, boiled down: (§2)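 Visual ratings from 0 (no effect) to 100 (complete control), made against controls 13–15 days after treatment, kept in a greenhouse. Compounds were applied postemergence to potted plants at the 1- to 4-leaf stage (2–18 cm).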
Regarding `CCCCn1c(-c2ccccc2)ncc(C(=O)C2=C(O)CCCC2=O)c1=O` [Compound 86], the “Plant response rating, Canarygrass” value amounted to 20.

Still in this assay, the particulars now being: 62 g ai/ha, postemergence; 0 is no effect, 100 is complete control; 13 to 15 days.
Regarding `CCCCn1c(-c2ccccc2)ncc(C(=O)C2=C(O)CCCC2=O)c1=O` [Compound 86], the “Canarygrass plant response rating (0 to 100 scale)” value was 20.

Still in this assay, the particulars now being: Postemergence, 125 g ai/ha; visual rating after 13 to 15 days, scale 0 (no effect) to 100 (complete control).
With `CCCCn1c(-c2ccccc2)ncc(C(=O)C2=C(O)CCCC2=O)c1=O` [Compound 86], the “Plant response rating, Canarygrass” value was determined as 80.

Still in this assay, the particulars now being: Postemergence, 250 g ai/ha; scale 0 to 100 (0 no effect, 100 complete control).
On to `CCCCn1c(-c2ccccc2)ncc(C(=O)C2=C(O)CCCC2=O)c1=O` [Compound 86], for which the “Plant response rating, Canarygrass” value is given as 85.

In the next assay the test system is chickweed (Stellaria media). The assay is described as follows: Test B postemergence plant response. In kind it is in vivo. Conditions: 31 g ai/ha, postemergence; scale 0 to 100, 0 is no effect, 100 is complete control. An outline of the steps:
as §2
Take `CCCCn1c(-c2ccccc2)ncc(C(=O)C2=C(O)CCCC2=O)c1=O` [Compound 86]: the “Plant response rating, Chickweed” value was 80.

The same assay, now with this note: 62 g ai/ha, postemergence; 0 is no effect, 100 is complete control; 13 to 15 days.
In the case of `CCCCn1c(-c2ccccc2)ncc(C(=O)C2=C(O)CCCC2=O)c1=O` [Compound 86], the “Chickweed plant response rating (0 to 100 scale)” value turned out to be 95.

The same assay, now with this note: Postemergence, 125 g ai/ha; visual rating after 13 to 15 days, scale 0 (no effect) to 100 (complete control).
As to `CCCCn1c(-c2ccccc2)ncc(C(=O)C2=C(O)CCCC2=O)c1=O` [Compound 86], the “Plant response rating, Chickweed” value stood at 95.

The assay is the same for the next values; noted with them: Postemergence, 250 g ai/ha; scale 0 to 100 (0 no effect, 100 complete control).
Turning to `CCCCn1c(-c2ccccc2)ncc(C(=O)C2=C(O)CCCC2=O)c1=O` [Compound 86], the “Plant response rating, Chickweed” value is listed as 98.

A further assay concerns windgrass (Apera spica-venti). The assay can be described thus: Test B postemergence plant response. The format is in vivo. As to conditions: 31 g ai/ha, postemergence; scale 0 to 100, 0 is no effect, 100 is complete control. An outline of the steps: as §2
Consider `CCCCn1c(-c2ccccc2)ncc(C(=O)C2=C(O)CCCC2=O)c1=O` [Compound 86], for which the “Plant response rating, Windgrass” value stood at 30.

The assay is the same for the next values; noted with them: 62 g ai/ha, postemergence; 0 is no effect, 100 is complete control; 13 to 15 days.
For the compound `CCCCn1c(-c2ccccc2)ncc(C(=O)C2=C(O)CCCC2=O)c1=O` [Compound 86], the “Windgrass plant response rating (0 to 100 scale)” value turned out to be 60.

The same assay, now with this note: Postemergence, 250 g ai/ha; scale 0 to 100 (0 no effect, 100 complete control).
With `CCCCn1c(-c2ccccc2)ncc(C(=O)C2=C(O)CCCC2=O)c1=O` [Compound 86], the “Plant response rating, Windgrass” value came to 95.
